This data set can be described thus: Caco2 Permeability Assay. The data set is classed as in vitro ADME. The settings on record: human; for efflux ratio at 2 h, 5 μM: pH 7.4, Caco-2, 5 μM, read-out: Efflux Ratio (ER); for Papp A→B at 2 h, 5 μM: pH 7.4, Caco-2, apical to basolateral. The method, then:
Preparation of Caco-2 Cells: 50 μL and 25 mL of cell culture medium are added to each well of a Transwell® insert and reservoir, respectively. Then, the HTS Transwell® plates are incubated at 37° C., 5% CO2 for 1 hour before cell seeding. Caco-2 cell cells are diluted to 6.86×10^5 cells/mL with culture medium, and 50 μL of cell suspension are dispensed into the filter well of the 96-well HTS Transwell® plate. Cells are cultivated for 14-18 days in a cell culture incubator at 37° C., 5% CO2, 95% relative humidity. Cell culture medium is replaced every other day, beginning no later than 24 hours after initial plating.
Preparation of Stock Solutions: 10 mM stock solutions of test compounds are prepared in DMSO. The stock solutions of positive controls are prepared in DMSO at the concentration of 10 mM. Digoxin and propranolol are used as control compounds in this assay.
Assessment of Cell Monolayer Integrity: Medium is removed from the reservoir and each Transwell® insert and is replaced with prewarmed fresh culture medium. Transepithelial electrical resistance (TEER) across the monolayer is measured using Millicell Epithelial Volt-Ohm measuring system (Millipore, USA). The Plate is returned to the incubator once the measurement is done. The TEER value is calculated according to the following equation: TEER measurement (ohms)×Area of membrane (cm^2)=TEER value (ohm⋅cm^2). A TEER value greater than 230 ohm⋅cm^2 indicates a well-qualified Caco-2 monolayer.
Assay Procedure: The Caco-2 plate is removed from the incubator and washed twice with pre-warmed HBSS (10 mM HEPES, pH 7.4), and then incubated at 37° C. for 30 minutes. The stock solutions of control compounds are diluted in DMSO to get 1 mM solutions and then diluted with HBSS (10 mM HEPES, pH 7.4) to get 5 μM working solutions. The stock solutions of the test compounds are diluted in DMSO to get 1 mM solutions and then diluted with HBSS (10 mM HEPES and 4% BSA, pH 7.4) to get 5 μM working solutions. The final concentration of DMSO in the incubation system is 0.5%. To determine the rate of drug transport in the apical to basolateral direction. 75 μL of 5 μM working solutions of test compounds are added to the Transwell® insert (apical compartment) and the wells in the receiver plate (basolateral compartment) are filled with 235 μL of HBSS (10 mM HEPES and 4% BSA, pH 7.4). To determine the rate of drug transport in the basolateral to apical direction, 235 μL of 5 μM working solutions of test compounds are added to the receiver plate wells (basolateral compartment) and then the Transwell® inserts (apical compartment) are filled with 75 μL of HBSS (10 mM HEPES and 4% BSA, pH 7.4). Time 0 samples are prepared by transferring 50 μL of 5 μM working solution to wells of the 96-deepwell plate, followed by the addition of 200 μL cold methanol containing appropriate internal standards (IS). The plates are incubated at 37° C. for 2 hours. At the end of the incubation, 50 μL samples from donor sides (apical compartment for Ap→*Bl flux, and basolateral compartment for Bl→Ap) and receiver sides (basolateral compartment for Ap→Bl flux, and apical compartment for Bl→Ap) are transferred to wells of a new 96-well plate, followed by the addition of 4 volume of cold acetonitrile or methanol containing appropriate internal standards (IS). Samples are vortexed for 5 minutes and then centrifuged at 3,220 g for 40 minutes. An aliquot of 100 μL of the supernatant is mixed with an appropriate volume of ultra-pure water before LC-MS/MS analysis. To determine the Lucifer Yellow leakage after 2 hour transport period, stock solution of Lucifer yellow is prepared in ultra-pure water and diluted with HBSS (10 mM HEPES, pH 7.4) to reach the final concentration of 100 μM. 100 μL of the Lucifer yellow solution is added to each Transwell® insert (apical compartment), followed by filling the wells in the receiver plate (basolateral compartment) with 300 μL of HBSS (10 mM HEPES, pH 7.4). […]
On the technique in general: Caco-2 cells form a polarised layer with tight junctions and transporters.

SMILES strings stand for the structures.

For orientation: Papp A→B means the apparent permeability from the apical to the basolateral side of a cell layer. Low values mean slow passage, high ones fast passage. Regarding `CC(=O)Nc1cc(Oc2cnc3nc(Nc4cc(C(F)(F)F)cn(C)c4=O)n(C)c3c2Cl)c(F)cn1` [Example I-88, N-(4-((7-chloro-1-methyl-2-((1-methyl-2-oxo-5-(trifluoromethyl)-1,2-dihydropyridin-3-yl)amino)-1H-imidazo[4,5-b]pyridin-6-yl)oxy)-5-fluoropyridin-2-yl)acetamide], the efflux ratio at 2 h, 5 μM was at most 2 and the apparent permeability from apical to basolateral (Papp A→B) at 2 h, 5 μM stood at 5 ×10⁻⁶ cm/s.
Consider `CC(=O)Nc1cc(Oc2cnc3nc(Nc4cc5n(n4)CCCC54CC4)n(C)c3c2C#N)ccn1` [Example I-114, N-(4-((7-cyano-2-((6′,7′-dihydro-5′H-spiro[cyclopropane-1,4′-pyrazolo[1,5-a]pyridin]-2′-yl)amino)-1-methyl-1H-imidazo[4,5-b]pyridin-6-yl)oxy)pyridin-2-yl)acetamide], for which the efflux ratio at 2 h, 5 μM is at most 2 and the Papp A→B at 2 h, 5 μM worked out at 4 ×10⁻⁶ cm/s.
Take `CC(=O)Nc1cc(Oc2cnc3nc(Nc4cc5n(n4)CCOCC5(C)C)n(C)c3c2C#N)ccn1` [Example I-118, N-(4-((7-cyano-2-((4,4-dimethyl-4,5,7,8-tetrahydropyrazolo[1,5-d][1,4]oxazepin-2-yl)amino)-1-methyl-1H-imidazo[4,5-b]pyridin-6-yl)oxy)pyridin-2-yl)acetamide]: the efflux ratio at 2 h, 5 μM was in the range of 2 to 5 and the apical-to-basolateral permeability (Papp A→B) at 2 h, 5 μM was found to be 5 ×10⁻⁶ cm/s.
With `Cn1c(Nc2cc3n(n2)CCC32CCC2)nc2ncc(Oc3ccnc(NC(=O)C4CC4)c3)c(C#N)c21` [Example I-122, N-(4-((7-cyano-2-((5′,6′-dihydrospiro[cyclobutane-1,4′-pyrrolo[1,2-b]pyrazol]-2′-yl)amino)-1-methyl-1H-imidazo[4,5-b]pyridin-6-yl)oxy)pyridin-2-yl)cyclopropanecarboxamide], the efflux ratio at 2 h, 5 μM fell in the range of 2 to 5 and the apparent permeability from apical to basolateral (Papp A→B) at 2 h, 5 μM turned out to be 2 ×10⁻⁶ cm/s.
Turning to `CCN1CCN(Cc2ccc(Nc3nc4ccc(Oc5ccnc(NC(C)=O)c5)cc4n3C)cc2C(F)(F)F)CC1` [Example R-1, reference compound], the efflux ratio at 2 h, 5 μM was 10 to 30 and the apical-to-basolateral permeability (Papp A→B) at 2 h, 5 μM turned out to be 0.4 ×10⁻⁶ cm/s.

These data come from patent US11970494B2, “6-heteroaryloxy benzimidazoles and azabenzimidazoles as JAK2 inhibitors” (Ajax Therapeutics, Inc., priority 2021, dated 2024).
